Assay results reported in patent US8959984B2, “Proteome-wide quantification of small molecule binding to cellular target proteins” (priority 2007, dated 2015).

Biological target: T1, SgK085 (MYLK3) (Homo sapiens, UniProt Q32MK0)
T1 sequence (Q32MK0 1-819): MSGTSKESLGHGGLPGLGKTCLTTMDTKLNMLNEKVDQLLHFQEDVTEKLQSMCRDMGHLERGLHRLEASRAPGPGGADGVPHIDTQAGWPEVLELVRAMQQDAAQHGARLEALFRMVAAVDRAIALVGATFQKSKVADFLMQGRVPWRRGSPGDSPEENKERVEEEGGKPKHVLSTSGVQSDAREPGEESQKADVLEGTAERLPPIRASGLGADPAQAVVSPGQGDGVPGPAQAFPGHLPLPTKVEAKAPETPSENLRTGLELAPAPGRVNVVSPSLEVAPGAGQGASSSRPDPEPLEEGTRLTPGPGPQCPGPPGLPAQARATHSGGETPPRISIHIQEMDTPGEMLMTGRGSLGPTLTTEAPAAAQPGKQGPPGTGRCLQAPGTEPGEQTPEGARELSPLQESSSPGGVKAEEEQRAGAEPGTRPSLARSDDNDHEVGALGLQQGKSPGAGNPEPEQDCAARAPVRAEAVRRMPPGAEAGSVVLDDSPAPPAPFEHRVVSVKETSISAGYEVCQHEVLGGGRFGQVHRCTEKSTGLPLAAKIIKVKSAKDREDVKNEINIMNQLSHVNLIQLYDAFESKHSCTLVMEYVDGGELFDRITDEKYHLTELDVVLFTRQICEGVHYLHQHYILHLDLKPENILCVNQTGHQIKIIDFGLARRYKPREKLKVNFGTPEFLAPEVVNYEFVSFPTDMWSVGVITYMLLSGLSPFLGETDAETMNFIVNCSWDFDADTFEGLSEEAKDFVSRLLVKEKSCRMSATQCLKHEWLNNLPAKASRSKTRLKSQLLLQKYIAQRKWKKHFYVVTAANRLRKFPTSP
Assay: binding to AX14596 beads (HeLa lysate, SILAC MS)

SMILES: COc1cc2ncnc(Nc3ccc(F)c(Cl)c3)c2cc1OCCCN [AX14596]
- Ki: 186 µM
- r (3 mg/1 mg lysate): 2.56
- r (5 h/2.5 h inc. time): 0.97
- rAVERAGE (2. inc/1. inc): 0.65
- rAVERAGE (control/1. inc): 0.00
